Measured values reported in patent publication US5298397A, “Method of assaying d-vanillylmandelic acid” (Yamasa Shoyu Kabushiki Kaisha, priority 1989, dated 1994).

Legend:
anti-D-VMA antibody = assay: Cross-reactivity of anti-D-VMA monoclonal antibodies with acidic catecholamine metabolites (competitive enzyme immunoassay); type: binding, mouse; settings: reactivity with D-VMA defined as 100%; for Antibody Reactivity (% by weight): from concentration ratios at 50% inhibition on standard curves
Description: Three days after the final booster, spleen cells of the mouse were enucleated and washed with Eagle's minimum essential medium (MEM). […] The spleen cells and P3 U1 were mixed at 10:1 and the mixture was centrifuged. To the pellets obtained was gradually added 1 ml of an MEM solution containing 50% polyethylene glycol (PEG) 1000 to cause cell fusion. […] 0.1 ml of the suspension was apportioned to each well of a 96-well microplate. One day thereafter, 0.1 ml of HAT medium was added. […] Into each well of the 96-well microplate previously coated with HSA and the 96-well microplate coated with D-VMA-HSA (10 μg/ml) was added […] of the above diluted culture supernatant. […] After one hour at room temperature, by the use of the same reagent as in the case of the ELISA method as described above except for using O-phenylenediamine as the chromogenic reagent, enzyme immunoassay was practiced according to the competitive reaction method.

[1] = tested on: peroxidase-labeled anti-D-VMA antibody; assay: Competitive enzyme immunoassay of D-VMA or L-VMA solutions with peroxidase-labeled anti-D-VMA antibody on solid-phase antigen plate; type: binding, mouse; settings: conclusion drawn from Table 2
Description: A volume of 50 μl of the D-VMA solution or L-VMA solution as described above and 50 μl of the peroxidase-labeled anti-D-VMA antibody solution were added into each well, and reaction was carried out stationarily at room temperature for one hour.
After reaction, the solution in each well was discarded and each well was washed with a 0.9% aqueous sodium chloride solution.
After washing, 100 μl of a substrate solution (containing 1 mM H2 O2 and […] TMBZ) was added and left standing for 25 minutes. A volume of 100 μl of a reaction stopping solution (a 2N sulfuric acid solution) was added, and absorbance at 450 nm was measured by the use of a 96-well microplate reader MPR-A4 (produced by Toso K. K.).
After measurement, from the calibration curve prepared by the use of DL-VMA of a known concentration as a standard substance (FIG. 1), the VMA concentration corresponding to the above absorbance was determined.

Row | SMILES | Antibody Reactivity (% by weight) (anti-D-VMA antibody) | cross-reactivity of the antibody reagent (anti-D-VMA antibody) | reactivity of the labeled antibody [1]
1 | COc1cc(CC(=O)C(=O)O)ccc1O [Vanillylpyruvic acid] | 4 % by weight | – | –
2 | COc1cc([C@H](O)C(=O)O)ccc1O [L-VMA] | < 1 % by weight | ≤ 1% | substantially no reactivity
3 | COc1cc([C@@H](O)C(=O)O)ccc1O [D-VMA, D-vanillylmandelic acid] | 100 % by weight | – | –
4 | COc1cc(C(O)C(=O)O)ccc1O (racemic) [DL-VMA, vanillylmandelic acid] | 50 % by weight | – | –
5 | O=C(O)C(O)c1ccc(O)c(O)c1 (stereo not shown) [3,4-Dihydroxymandelic acid (DOMA), 3,4-Dihydroxymandelic acid] | 4 % by weight | – | –
6 | COc1cc(CC(=O)O)ccc1O [Homovanilic acid (HVA), Homovanilic acid] | < 0.01 % by weight | – | –
7 | O=C(O)Cc1ccc(O)c(O)c1 [3,4-Dihydroxyphenylacetic acid (DOPAC), 3,4-Dihydroxyphenylacetic acid] | < 0.01 % by weight | – | –
8 | CNCC(O)c1ccc(O)c(OC)c1 (stereo not shown) [Metanepherine] | < 0.01 % by weight | – | –
